Measured values as given in patent US5409926A, “AT-2 antagonist inhibition of vascular restenosis” (Merck & Co., Inc., priority 1993, dated 1995).
Entries after “also recorded” stand apart in the source; their conditions may differ.

Experiments:
Format in all cases: in vivo
restenosis in the rat [1] = assay: Effect of AII + Compound I on restenosis in the rat; details: for effect on formation of the neointima (in words): exogenous AII 14 ug/kg/hr i.v., with or without Compound I
Description: The effect of AII+Compound I on restenosis in the rat
AII was delivered by continuous i.v. infusion (14 ug/kg/hr) beginning at the time of angioplasty. Compound I was delivered as an i.v. bolus at the time of angioplasty (1.0 mg/kg) followed by continuous i.v. infusion (1.0 mg/kg/day). Rats were sacrificed on day 14.

restenosis in the rat [2] = assay: Effect of Compound II or Compound I pretreatment on restenosis in the rat; details: 1 mg/kg/day i.v.; for Intimal Area / % Inhibition (intimal area): 48 h pretreatment, 14 days; for % Inhibition (intimal area): vs. control
Description: The Effect of Compound II on restenosis in the rat
Rats were pretreated with Compound II or Compound I for the 48 hour period prior to surgery as well as on the day of surgery (1 mg/kg/day, bolus i.v.). Drug treatment was continued at the time of angioplasty (1 mg/kg/day, continuous i.v.) for the duration of the experiments (14 days).

[3] = tested on: rat carotid artery model of balloon angioplasty; assay: Enalaprilat, Compound II, Compound I in rat carotid artery model of balloon angioplasty; details: 1 mg/kg/day continuous i.v.; for Intimal Area + sem / % Inhibition (intimal area): pretreatment (pt), 14 days; for % Inhibition (intimal area): vs. control; for inhibition of restenosis / neointima (in words): pretreatment
Description: AII Receptor Antagonist: The effect of enalaprilat, the AII (site 2) receptor antagonist, Compound II, and Compound II in combination with the AII (site 1) receptor antagonist, Compound I, were evaluated in the rat carotid artery model of balloon angioplasty. Rats were pretreated surgery and drag treatment was continued (1 mg/kg/day, continuous i.v.) by ALZET minipump for the duration of the experiments. Fourteen days after balloon angioplasty, the rats were sacrificed and the extent of restenosis was determined by morphometric measurements of the newly-formed intima.

restenosis in the rat [4] = assay: Effect of Compound I pretreatment and Compound I-Heparin combination therapy on restenosis in the rat; details: for Intima Area: average ± sem
Description: The effect of Compound I pretreatment and Compound I--Heparin Combination therapy on restenosis in the rat
Compound I was delivered as an i.v. bolus at the time of angioplasty (1.0 mg/kg) followed by continuous i.v. infusion (1.0 mg/kg/day). Some groups were pretreated with Compound I. Pretreatment (PreRx) was begun 48 hr (1 mg/kg/day, i.v. bolus) prior to angioplasty. In all cases, Compound I treatment was continued for 14 days post-angioplasty. Other groups received Compound I in conjunction with heparin (0.3 mg/kg i.v. bolus+0.3 mg/kg/hr continuous i.v.) begun at the time of angioplasty and discontinued either 2 or 4 days later. The Hep 4d and Hep 2d data from above is included.

restenosis in the rat [5] = assay: Effect of Compound I on restenosis in the rat: dose-response study; details: for I/M / Intima Area / Media Area: day 14
Description: The effect of Compound I on restenosis in the Rat: Dose-response study
Compound I was delivered as an i.v. bolus at the time of angioplasty (0.1-1.0 mg/kg) followed by continuous i.v. infusion (0.1-1.0 mg/kg/day) until sacrifice on day 14.

[6] = tested on: restenosis in the rat model; assay: Effects of Compound II (alone, + Compound I, + heparin) and heparin on restenosis in the rat model (balloon angioplasty); details: for Intimal Area / % Inhibition of restenosis (intimal area): 14 days after balloon angioplasty, Compounds 1 mg/kg/day i.v. with 48 h pretreatment; for Intimal Area: heparin 0.3 mg/kg bolus + 0.3 mg/kg/hr i.v. for 4 days; for % Inhibition of restenosis (intimal area): heparin 0.3 mg/kg/hr i.v. for 4 days, vs. control
Description: The effects of the angiotensin II (Site II) receptor antagonist Compound II on restenosis in the rat model
A vehicle treatment group was compared to rats treated with: i) the AII (AT2) receptor antagonist, Compound II; ii) Compound II plus the AII (AT1) receptor antagonist, Compound I; (iii) Compound II+heparin; and iv) heparin only. Combination treatment with Compound II and Compound I were administered for the 48 hour period prior to surgery as well as on the day of surgery at 1 mg/kg/day by bolus i.v. Compound II and Compound I treatment was continued at the time of angioplasty at 1 mg/kg/day by continuous i.v. delivery via Alzet minipumps for the duration of the experiments (14 days). Heparin was delivered as a 0.3 mg/kg i.v. bolus at the time of angioplasty followed by continous i.v. delivery at 0.3 mg/kg/hr by Alzet minipump. Heparin treatment was discontinued 4 days later. Fourteen days after balloon angioplasty, the rats were sacrificed and the extent of restenosis was determined by morphometric measurements of the newly-formed intima.

restenosis in the rat [7] = assay: Effect of Heparin on restenosis in the rat: time course; details: for I/M / Intima Area / Media Area: heparin 0.3 mg/kg/hr i.v.
Description: The effect of Heparin on restenosis in the rat: time course
Heparin (0.3 mg/kg/hr) was delivered by i.v. bolus (0.3 mg/kg) at the time of angioplasty followed by continuous i.v. delivery for 2, 4 or 14 days (0.3 mg/kg,hr). The animals were sacrificed on day 14.

[8] = PreRx (48 hr, 1 mg/kg/day), no heparin
[9] = no pretreatment, no heparin, Compound I 1.0 mg/kg/day i.v., 14 days
[10] = AII 14 ug/kg/hr i.v., Compound I 1.0 mg/kg bolus + 1.0 mg/kg/day i.v., day 14
[11] = no pretreatment, Hep 4d (0.3 mg/kg/hr i.v.)

## CCc1nc2c(C)cc(C)nc2n1Cc1ccc(-c2ccccc2-c2nnn[nH]2)cc1 [Compound I, 5,7-dimethyl-2-ethyl-3-[(2'-(1H-tetrazol-5-yl)[1,1']-biphenyl-4-yl]-methyl]-3H-imidazo[4,5-b]pyridine]
Restenosis in the rat [1]
  effect on formation of the neointima (in words): inhibits this stimulation
Restenosis in the rat [2]
  inhibition of neointimal formation (in words): may independently inhibit growth of the neointimal formation
  Intimal Area: 0.121 ± 0.012 mm^2
  % Inhibition (intimal area): 41%
[3]
  Intimal Area + sem: 0.121 ± 0.012 mm^2
  % Inhibition (intimal area): 41%
  inhibition of restenosis / neointima (in words): independently inhibit neointima in this model
Restenosis in the rat [4]; [8]
  I/M: 1.01 ± 0.07
  Media Area: 0.124 ± 0.006 mm^2
  Intima Area: 0.125 ± 0.010 mm^2
Restenosis in the rat [4]; [9]
  I/M: 1.19 ± 0.04
  Media Area: 0.125 ± 0.006 mm^2
  Intima Area: 0.149 ± 0.009 mm^2
Restenosis in the rat [4]; pretreatment for 2 days or co-administration of heparin
  reduction in the neointimal area (in words): reduction in the neointimal area when compared with no pretreatment
Restenosis in the rat [5]; 0.1 mg/kg/day i.v.
  I/M: 1.64 ± 0.09
  Intima Area: 0.212 ± 0.013 mm^2
  Media Area: 0.129 ± 0.003 mm^2
Restenosis in the rat [5]; 0.3 mg/kg/day i.v.
  I/M: 1.47 ± 0.19
  Intima Area: 0.148 ± 0.014 mm^2
  Media Area: 0.103 ± 0.009 mm^2
Restenosis in the rat [5]; 1.0 mg/kg/day i.v.
  I/M: 1.24 ± 0.04
  Intima Area: 0.149 ± 0.009 mm^2

## CCc1nc2ccc(N(Cc3ccccc3)C(=O)c3cccs3)cc2c(=O)n1Cc1ccc(-c2ccccc2-c2nn[nH]n2)cc1 [Compound II]
Restenosis in the rat [2]
  inhibition of neointimal formation (in words): may independently inhibit growth of the neointimal formation
  Intimal Area: 0.097 ± 0.027 mm^2
  % Inhibition (intimal area): 53%
[3]
  Intimal Area + sem: 0.097 ± 0.027 mm^2
  % Inhibition (intimal area): 53%
  inhibition of restenosis / neointima (in words): inhibit restenosis in this model; also recorded: independently inhibit neointima in this model
Restenosis in the rat [5]; 0.1-1.0 mg/kg/day i.v.
  inhibition of neointimal formation (in words): inhibits neointimal formation in a dose dependent manner
[6]
  Intimal Area: 0.097 ± 0.027 mm^2
  % Inhibition of restenosis (intimal area): 53%
[6]; rat carotid model, administration alone
  effect upon neointimal formation (in words): significant effect upon neointimal formation

## C[C@H](N[C@@H](CCc1ccccc1)C(=O)O)C(=O)N1CCC[C@H]1C(=O)O [enalaprilat]
[3]
  Intimal Area + sem: 0.133 ± 0.016 mm^2
  % Inhibition (intimal area): 35%
  inhibition of restenosis / neointima (in words): inhibit restenosis in this model; also recorded: independently inhibit neointima in this model

## Angiotensin II (DRVYIHPF; Angiotensin-2; UniProt P01019 25-32, looked up) [AII, powerful arterial vasoconstrictor]
Restenosis in the rat [1]; [10]
  I/M: 1.92 ± 0.19
  Intima Area: 0.348 ± 0.047 mm^2
  Media Area: 0.176 ± 0.008 mm^2
Restenosis in the rat [1]
  effect on formation of the neointima (in words): stimulates the formation of the neointima by almost two fold

## heparin
Restenosis in the rat [4]; Hep 2d alone
  I/M: 1.14 ± 0.13
  Media Area: 0.130 ± 0.008 mm^2
  Intima Area: 0.144 ± 0.012 mm^2
Restenosis in the rat [4]; [11]
  I/M: 1.17 ± 0.10
  Media Area: 0.136 ± 0.010 mm^2
  Intima Area: 0.158 ± 0.016 mm^2
Restenosis in the rat [7]; 2 days
  I/M: 1.14 ± 0.13
  Intima Area: 0.144 ± 0.012 mm^2
  Media Area: 0.130 ± 0.008 mm^2
Restenosis in the rat [7]; 4 days
  I/M: 1.17 ± 0.10
  Intima Area: 0.158 ± 0.016 mm^2
  Media Area: 0.136 ± 0.010 mm^2
Restenosis in the rat [7]; 14 days
  I/M: 0.77 ± 0.05
  Intima Area: 0.098 ± 0.008 mm^2
  Media Area: 0.128 ± 0.004 mm^2
Restenosis in the rat [7]; heparin alone, 2, 4 or 14 days
  effect on formation of neointima (in words): decreases the formation of neointima; also recorded: greatest degree of inhibition was observed when heparin was given for 14 days
[6]
  Intimal Area: 0.158 ± 0.016 mm^2
  % Inhibition of restenosis (intimal area): 23%
